# Laboratory results: ChEMBL document CHEMBL4507261, “Data for DCP probe A-192621” (2021)
# Assays:
# [1] = molecular target: Prostaglandin G/H synthase 1 (Homo sapiens) (UniProt P23219); assay: COX1(h) Eurofins-Cerep enzyme and uptake assay; settings: Compound concentration 10.0 uM
# [2] = molecular target: Calcitonin-gene-related peptide receptor, CALCRL/RAMP1 (Homo sapiens) (UniProt O60894+Q16602); assay: CGRP (h) Eurofins-Cerep binding assay; assay type: protein-complex assay; set-up: ligand concentration 0.03 nM; settings: filed as agonist, Compound concentration 10.0 uM
# [3] = molecular target: Glutamate NMDA receptor (Rattus norvegicus) (UniProt P35439+Q00959+Q00960+Q00961+Q62645+Q8VHN2+Q9R1M7); assay: PCP Eurofins-Cerep binding assay; assay type: protein-complex assay; set-up: ligand concentration 10 nM; settings: filed as antagonist, Compound concentration 10.0 uM
# [4] = molecular target: GABA-A receptor; anion channel (Rattus norvegicus) (UniProt O09028+P15431+P18506+P18508+P19969+P20236+P23574+P23576+P28471+P28473+P30191+P62813+P63079+P63138+Q91ZM7+Q9ES14); assay: Cl- channel (GABA-gated) Eurofins-Cerep binding assay; assay type: protein-complex assay; set-up: ligand concentration 3 nM; settings: filed as antagonist, Compound concentration 10.0 uM
# [5] = molecular target: Sodium- and chloride-dependent GABA transporter 1 (Rattus norvegicus) (UniProt P23978); assay: GABA transporter Eurofins-Cerep binding assay; set-up: ligand concentration 10 nM; settings: filed as antagonist, Compound concentration 10.0 uM
# [6] = molecular target: Activin receptor type-2B (Homo sapiens) (UniProt Q13705); settings: Compound concentration 1000.0 nM
# [7] = system: ALK tyrosine kinase receptor (Homo sapiens), Q9UM73 [L1196M]; settings: Compound concentration 1000.0 nM
# [8] = molecular target: Ankyrin repeat and protein kinase domain-containing protein 1 (Homo sapiens) (UniProt Q8NFD2); settings: Compound concentration 1000.0 nM
# [9] = molecular target: Tyrosine-protein kinase Blk (Homo sapiens) (UniProt P51451); settings: Compound concentration 1000.0 nM
# [10] = molecular target: Calcium/calmodulin-dependent protein kinase type IV (Homo sapiens) (UniProt Q16566); settings: Compound concentration 1000.0 nM
# [11] = molecular target: Cyclin-dependent kinase-like 5 (Homo sapiens) (UniProt O76039); settings: Compound concentration 1000.0 nM
# [12] = molecular target: Death-associated protein kinase 2 (Homo sapiens) (UniProt Q9UIK4); settings: Compound concentration 1000.0 nM
# [13] = molecular target: Serine/threonine-protein kinase 17B (Homo sapiens) (UniProt O94768); settings: Compound concentration 1000.0 nM
# [14] = system: Epidermal growth factor receptor (Homo sapiens), P00533 [G719S]; settings: Compound concentration 1000.0 nM
# [15] = molecular target: Tyrosine-protein kinase Fgr (Homo sapiens) (UniProt P09769); settings: Compound concentration 1000.0 nM
# [16] = system: eIF-2-alpha kinase GCN2 (Homo sapiens), Q9P2K8 [S808G]; settings: Compound concentration 1000.0 nM
# Sequence of eIF-2-alpha kinase GCN2 (Homo sapiens), Q9P2K8 [S808G] (Q9P2K8 whole entry S808G): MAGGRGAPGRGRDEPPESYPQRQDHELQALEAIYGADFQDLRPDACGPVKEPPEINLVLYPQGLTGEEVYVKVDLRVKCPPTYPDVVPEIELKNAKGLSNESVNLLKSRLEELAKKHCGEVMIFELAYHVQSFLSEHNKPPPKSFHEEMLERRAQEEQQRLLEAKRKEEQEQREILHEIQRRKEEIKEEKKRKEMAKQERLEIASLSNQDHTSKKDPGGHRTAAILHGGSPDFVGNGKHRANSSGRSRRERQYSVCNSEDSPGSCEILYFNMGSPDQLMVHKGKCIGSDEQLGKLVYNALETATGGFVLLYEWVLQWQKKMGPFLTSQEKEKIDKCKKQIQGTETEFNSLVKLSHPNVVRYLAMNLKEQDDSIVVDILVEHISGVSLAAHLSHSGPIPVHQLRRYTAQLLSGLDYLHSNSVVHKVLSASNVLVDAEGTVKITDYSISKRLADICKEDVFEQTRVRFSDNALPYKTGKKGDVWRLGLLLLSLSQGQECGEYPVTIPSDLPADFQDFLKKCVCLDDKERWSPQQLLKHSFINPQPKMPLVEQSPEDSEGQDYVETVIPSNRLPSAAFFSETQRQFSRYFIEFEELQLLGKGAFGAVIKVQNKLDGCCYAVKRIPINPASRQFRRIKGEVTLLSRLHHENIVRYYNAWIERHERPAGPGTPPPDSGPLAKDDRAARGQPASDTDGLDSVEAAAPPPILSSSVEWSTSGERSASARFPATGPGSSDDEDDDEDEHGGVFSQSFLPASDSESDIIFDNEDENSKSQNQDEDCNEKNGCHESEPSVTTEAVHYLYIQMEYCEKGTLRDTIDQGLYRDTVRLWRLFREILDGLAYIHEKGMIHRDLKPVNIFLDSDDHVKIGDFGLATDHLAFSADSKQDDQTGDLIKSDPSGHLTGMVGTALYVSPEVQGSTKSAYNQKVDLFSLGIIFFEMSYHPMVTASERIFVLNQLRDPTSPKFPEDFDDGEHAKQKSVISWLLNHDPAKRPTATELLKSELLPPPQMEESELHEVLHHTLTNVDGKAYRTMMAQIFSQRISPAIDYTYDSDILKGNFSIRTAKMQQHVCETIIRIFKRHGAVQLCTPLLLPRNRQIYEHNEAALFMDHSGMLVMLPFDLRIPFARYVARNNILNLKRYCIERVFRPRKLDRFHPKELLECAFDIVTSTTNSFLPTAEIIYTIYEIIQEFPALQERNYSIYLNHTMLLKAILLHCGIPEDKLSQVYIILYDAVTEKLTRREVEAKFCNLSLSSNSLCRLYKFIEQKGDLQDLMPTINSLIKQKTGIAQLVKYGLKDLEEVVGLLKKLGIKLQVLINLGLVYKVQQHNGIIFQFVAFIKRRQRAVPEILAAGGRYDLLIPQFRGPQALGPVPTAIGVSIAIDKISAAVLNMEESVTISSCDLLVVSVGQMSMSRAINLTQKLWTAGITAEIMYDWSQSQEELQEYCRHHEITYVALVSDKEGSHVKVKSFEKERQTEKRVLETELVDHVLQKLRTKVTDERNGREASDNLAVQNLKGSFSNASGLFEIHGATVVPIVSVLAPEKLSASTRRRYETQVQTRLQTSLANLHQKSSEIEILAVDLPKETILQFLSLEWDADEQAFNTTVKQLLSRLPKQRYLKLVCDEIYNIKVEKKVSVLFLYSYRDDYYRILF
# [17] = molecular target: Inhibitor of nuclear factor kappa-B kinase subunit epsilon (Homo sapiens) (UniProt Q14164); settings: Compound concentration 1000.0 nM
# [18] = system: Mast/stem cell growth factor receptor Kit (Homo sapiens), P10721 [D816H]; settings: Compound concentration 1000.0 nM
# [19] = molecular target: Serine/threonine-protein kinase LATS1 (Homo sapiens) (UniProt O95835); settings: Compound concentration 1000.0 nM
# [20] = molecular target: Mitogen-activated protein kinase kinase kinase 4 (Homo sapiens) (UniProt Q9Y6R4); settings: Compound concentration 1000.0 nM
# [21] = molecular target: Dual specificity mitogen-activated protein kinase kinase 4 (Homo sapiens) (UniProt P45985); settings: Compound concentration 1000.0 nM
# [22] = molecular target: Myosin light chain kinase family member 4 (Homo sapiens) (UniProt Q86YV6); settings: Compound concentration 1000.0 nM
# Sequence of Myosin light chain kinase family member 4 (Homo sapiens) (Q86YV6 whole entry): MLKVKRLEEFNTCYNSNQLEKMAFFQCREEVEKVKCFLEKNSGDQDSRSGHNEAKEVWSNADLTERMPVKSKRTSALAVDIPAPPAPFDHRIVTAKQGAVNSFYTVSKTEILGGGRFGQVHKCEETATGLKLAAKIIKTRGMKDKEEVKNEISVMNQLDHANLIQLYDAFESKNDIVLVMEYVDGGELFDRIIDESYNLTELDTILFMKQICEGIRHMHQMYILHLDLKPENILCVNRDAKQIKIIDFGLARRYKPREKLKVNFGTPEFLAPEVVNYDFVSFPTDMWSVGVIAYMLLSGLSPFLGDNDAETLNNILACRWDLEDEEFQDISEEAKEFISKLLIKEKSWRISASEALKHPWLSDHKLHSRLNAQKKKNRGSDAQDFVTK
# [23] = molecular target: Serine/threonine-protein kinase Nek3 (Homo sapiens) (UniProt P51956); settings: Compound concentration 1000.0 nM
# [24] = molecular target: Calcium-dependent protein kinase 1 (Plasmodium falciparum) (UniProt P62344); settings: Compound concentration 1000.0 nM
# [25] = molecular target: Cyclin-dependent kinase 2 homolog (Plasmodium falciparum (isolate 3D7)) (UniProt P61075); settings: Compound concentration 1000.0 nM
# [26] = system: Phosphatidylinositol 4,5-bisphosphate 3-kinase catalytic subunit alpha isoform (Homo sapiens), P42336 [Q546K]; settings: Compound concentration 1000.0 nM
# [27] = molecular target: cAMP-dependent protein kinase catalytic subunit beta (Homo sapiens) (UniProt P22694); settings: Compound concentration 1000.0 nM
# [28] = molecular target: Serine/threonine-protein kinase N2 (Homo sapiens) (UniProt Q16513); settings: Compound concentration 1000.0 nM
# [29] = molecular target: Interferon-induced, double-stranded RNA-activated protein kinase (Homo sapiens) (UniProt P19525); settings: Compound concentration 1000.0 nM
# [30] = molecular target: Protein-tyrosine kinase 2-beta (Homo sapiens) (UniProt Q14289); settings: Compound concentration 1000.0 nM
# [31] = system: Proto-oncogene tyrosine-protein kinase receptor Ret (Homo sapiens), P07949 [M918T]; settings: Compound concentration 1000.0 nM
# [32] = molecular target: Serine/threonine-protein kinase Sgk3 (Homo sapiens) (UniProt Q96BR1); settings: Compound concentration 1000.0 nM
# [33] = molecular target: NUAK family SNF1-like kinase 2 (Homo sapiens) (UniProt Q9H093); settings: Compound concentration 1000.0 nM
# [34] = molecular target: Tyrosine-protein kinase SYK (Homo sapiens) (UniProt P43405); settings: Compound concentration 1000.0 nM
# [35] = molecular target: Angiopoietin-1 receptor (Homo sapiens) (UniProt Q02763); settings: Compound concentration 1000.0 nM
# [36] = molecular target: TRAF2 and NCK-interacting protein kinase (Homo sapiens) (UniProt Q9UKE5); settings: Compound concentration 1000.0 nM
# [37] = molecular target: Serine/threonine-protein kinase TNNI3K (Homo sapiens) (UniProt Q59H18); settings: Compound concentration 1000.0 nM
# [38] = molecular target: High affinity nerve growth factor receptor (Homo sapiens) (UniProt P04629); settings: Compound concentration 1000.0 nM
# [39] = molecular target: Testis-specific serine/threonine-protein kinase 3 (Homo sapiens) (UniProt Q96PN8); settings: Compound concentration 1000.0 nM
# [40] = molecular target: Serine/threonine-protein kinase WNK2 (Homo sapiens) (UniProt Q9Y3S1); settings: Compound concentration 1000.0 nM
# Sequence of Serine/threonine-protein kinase WNK2 (Homo sapiens) (Q9Y3S1 whole entry): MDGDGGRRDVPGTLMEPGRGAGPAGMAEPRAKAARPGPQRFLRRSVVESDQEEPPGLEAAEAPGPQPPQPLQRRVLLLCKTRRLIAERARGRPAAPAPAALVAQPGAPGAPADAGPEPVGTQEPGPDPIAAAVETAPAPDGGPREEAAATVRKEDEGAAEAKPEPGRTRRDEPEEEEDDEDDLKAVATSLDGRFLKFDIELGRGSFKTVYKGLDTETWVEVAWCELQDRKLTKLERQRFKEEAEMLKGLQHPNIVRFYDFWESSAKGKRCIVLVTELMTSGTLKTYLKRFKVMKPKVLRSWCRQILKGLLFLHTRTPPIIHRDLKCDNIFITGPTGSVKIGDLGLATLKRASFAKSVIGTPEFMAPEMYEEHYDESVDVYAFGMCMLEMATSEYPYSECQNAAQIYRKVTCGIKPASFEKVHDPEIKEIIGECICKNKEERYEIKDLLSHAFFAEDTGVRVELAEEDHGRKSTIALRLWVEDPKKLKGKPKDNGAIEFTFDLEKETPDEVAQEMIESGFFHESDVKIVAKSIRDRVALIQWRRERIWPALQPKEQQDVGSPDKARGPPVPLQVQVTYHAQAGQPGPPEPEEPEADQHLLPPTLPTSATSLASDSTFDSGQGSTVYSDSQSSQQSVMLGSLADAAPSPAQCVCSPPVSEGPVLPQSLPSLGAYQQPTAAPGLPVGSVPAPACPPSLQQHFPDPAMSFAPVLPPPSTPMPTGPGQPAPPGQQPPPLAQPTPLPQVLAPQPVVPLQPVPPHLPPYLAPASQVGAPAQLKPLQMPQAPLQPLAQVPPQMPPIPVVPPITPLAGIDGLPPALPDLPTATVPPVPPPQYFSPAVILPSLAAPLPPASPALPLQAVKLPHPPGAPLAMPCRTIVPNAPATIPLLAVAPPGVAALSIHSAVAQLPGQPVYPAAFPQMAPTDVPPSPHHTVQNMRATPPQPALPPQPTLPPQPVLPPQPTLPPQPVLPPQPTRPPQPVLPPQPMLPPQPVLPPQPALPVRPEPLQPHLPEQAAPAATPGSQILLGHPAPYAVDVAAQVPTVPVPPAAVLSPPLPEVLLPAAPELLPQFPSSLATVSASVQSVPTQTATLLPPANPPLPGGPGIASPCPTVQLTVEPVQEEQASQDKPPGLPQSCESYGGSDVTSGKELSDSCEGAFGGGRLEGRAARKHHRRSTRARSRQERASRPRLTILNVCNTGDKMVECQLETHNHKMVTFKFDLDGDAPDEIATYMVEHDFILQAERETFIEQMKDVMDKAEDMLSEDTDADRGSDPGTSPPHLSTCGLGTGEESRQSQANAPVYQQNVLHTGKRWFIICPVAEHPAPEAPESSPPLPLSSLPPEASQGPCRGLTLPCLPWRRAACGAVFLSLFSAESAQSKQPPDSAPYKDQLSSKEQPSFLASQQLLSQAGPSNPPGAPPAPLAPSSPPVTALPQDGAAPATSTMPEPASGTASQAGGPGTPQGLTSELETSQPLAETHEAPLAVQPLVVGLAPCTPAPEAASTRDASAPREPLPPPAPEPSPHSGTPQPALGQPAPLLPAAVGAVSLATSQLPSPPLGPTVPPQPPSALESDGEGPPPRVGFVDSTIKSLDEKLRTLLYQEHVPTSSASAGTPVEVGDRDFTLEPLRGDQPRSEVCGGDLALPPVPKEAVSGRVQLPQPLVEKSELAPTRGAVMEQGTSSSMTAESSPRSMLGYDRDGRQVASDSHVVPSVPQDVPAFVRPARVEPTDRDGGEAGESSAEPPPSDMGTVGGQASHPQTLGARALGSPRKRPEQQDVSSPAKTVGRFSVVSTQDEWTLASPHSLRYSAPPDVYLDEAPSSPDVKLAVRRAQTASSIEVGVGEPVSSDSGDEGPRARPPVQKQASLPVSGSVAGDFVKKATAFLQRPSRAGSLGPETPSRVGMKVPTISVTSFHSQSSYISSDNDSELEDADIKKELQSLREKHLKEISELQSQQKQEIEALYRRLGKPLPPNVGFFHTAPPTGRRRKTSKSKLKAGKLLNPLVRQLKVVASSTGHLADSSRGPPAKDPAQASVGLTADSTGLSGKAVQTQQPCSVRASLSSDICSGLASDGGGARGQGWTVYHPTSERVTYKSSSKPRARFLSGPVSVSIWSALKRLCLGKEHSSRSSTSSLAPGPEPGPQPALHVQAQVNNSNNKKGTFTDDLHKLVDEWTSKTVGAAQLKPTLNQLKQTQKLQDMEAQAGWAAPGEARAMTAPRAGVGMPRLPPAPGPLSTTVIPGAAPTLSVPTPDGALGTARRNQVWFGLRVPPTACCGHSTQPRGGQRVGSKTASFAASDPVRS
# [41] = molecular target: Serine/threonine-protein kinase 25 (Homo sapiens) (UniProt O00506); settings: Compound concentration 1000.0 nM
# [42] = molecular target: Tyrosine-protein kinase ZAP-70 (Homo sapiens) (UniProt P43403); settings: Compound concentration 1000.0 nM
smiles,measurement,setting,value
CCCOc1ccc([C@H]2[C@H](C(=O)O)[C@@H](c3ccc4c(c3)OCO4)CN2CC(=O)Nc2c(CC)cccc2CC)cc1 [A-192621],% Inhibition of Control Values (Mean n=2),[1],13.2%
same,% Inhibition of Control Specific Binding (Mean n=2),[2],-6.1%
same,% Inhibition of Control Specific Binding (Mean n=2),[3],-1.5%
same,% Inhibition of Control Specific Binding (Mean n=2),[4],77.4%
same,% Inhibition of Control Specific Binding (Mean n=2),[5],-12%
same,residual activity,[6],93%
same,residual activity,[7],91%
same,residual activity,[8],65%
same,residual activity,[9],88%
same,residual activity,[10],89%
same,residual activity,[11],85%
same,residual activity,[12],100%
same,residual activity,[13],91%
same,residual activity,[14],89%
same,residual activity,[15],98%
same,residual activity,[16],90%
same,residual activity,[17],68%
same,residual activity,[18],72%
same,residual activity,[19],77%
same,residual activity,[20],88%
same,residual activity,[21],80%
same,residual activity,[22],75%
same,residual activity,[23],69%
same,residual activity,[24],88%
same,residual activity,[25],87%
same,residual activity,[26],69%
same,residual activity,[27],87%
same,residual activity,[28],100%
same,residual activity,[29],100%
same,residual activity,[30],98%
same,residual activity,[31],84%
same,residual activity,[32],63%
same,residual activity,[33],57%
same,residual activity,[34],100%
same,residual activity,[35],100%
same,residual activity,[36],88%
same,residual activity,[37],100%
same,residual activity,[38],84%
same,residual activity,[39],58%
same,residual activity,[40],58%
same,residual activity,[41],100%
same,residual activity,[42],50%
CCCOc1ccc([C@@H]2[C@@H](C(=O)O)[C@H](c3ccc4c(c3)OCO4)CN2CC(=O)Nc2c(CC)cccc2CC)cc1 [A-1806262],% Inhibition of Control Values (Mean n=2),[1],2.3%
same,% Inhibition of Control Specific Binding (Mean n=2),[2],-0.3%
same,% Inhibition of Control Specific Binding (Mean n=2),[3],0.2%
same,% Inhibition of Control Specific Binding (Mean n=2),[4],60.8%
same,% Inhibition of Control Specific Binding (Mean n=2),[5],-17.3%
same,residual activity,[6],96%
same,residual activity,[7],78%
same,residual activity,[8],73%
same,residual activity,[9],96%
same,residual activity,[10],96%
same,residual activity,[11],83%
same,residual activity,[12],80%
same,residual activity,[13],93%
same,residual activity,[14],100%
same,residual activity,[15],93%
same,residual activity,[16],100%
same,residual activity,[17],85%
same,residual activity,[18],94%
same,residual activity,[19],57%
same,residual activity,[20],99%
same,residual activity,[21],83%
same,residual activity,[22],100%
same,residual activity,[23],100%
same,residual activity,[24],64%
same,residual activity,[25],97%
same,residual activity,[26],80%
same,residual activity,[27],100%
same,residual activity,[28],100%
same,residual activity,[29],100%
same,residual activity,[30],97%
same,residual activity,[31],97%
same,residual activity,[32],69%
same,residual activity,[33],73%
same,residual activity,[34],100%
same,residual activity,[35],86%
same,residual activity,[36],100%
same,residual activity,[37],84%
same,residual activity,[38],97%
same,residual activity,[39],81%
same,residual activity,[40],88%
same,residual activity,[41],100%
same,residual activity,[42],94%
